Tests used:
Escherichia coli RNAP = Escherichia coli RNAP (Escherichia coli, UniProt P0A8T7+P0A8V2); assay: Fluorescence-detected RNAP assay, Escherichia coli RNAP; type: biochemical; conditions: fluorescent-detected RNAP assays
Protocol: Fluorescence-detected RNAP assays with Escherichia coli RNAP were performed by a modification of the procedure of Kuhlman et al., 2004 [Kuhlman et al., Anal. Biochem. 324:183-190, 2004]. Reaction mixtures contained (20 μl): […] test compound, 75 nM Escherichia coli RNAP […] holoenzyme, 20 nM 384 by DNA fragment containing the bacteriophage T4 N25 promoter, 100 μM ATP, 100 μM GTP, 100 μM UTP, 100 μM CTP, 50 mM Tris-HCl, pH 8.0, 100 mM KCl, 10 mM MgCl2, 1 mM DTT, 10 μg/ml bovine serum albumin, and 5.5% glycerol. Reaction components other than DNA and NTPs were pre-incubated for 10 min at 37° C. Reactions were carried out by addition of DNA and incubation for 5 min at 37° C., followed by addition of NTPs and incubation for 60 min at 37° C. DNA was removed by addition of 1 μl 5 mM CaCl2 and 2 U DNaseI (Ambion, Inc.), followed by incubation for 90 min at 37° C. RNA was quantified by addition of 100 μl RiboGreen RNA Quantitation Reagent (Invitrogen, Inc.; 1:500 dilution in Tris-HCl, pH 8.0, 1 mM EDTA), followed by incubation for 10 min at 25° C., followed by measurement of fluorescence intensity [excitation wavelength=485 nm and emission wavelength=535 nm; QuantaMaster QM1 spectrofluorometer (PTI, Inc.)].
(§1) Half-maximal inhibitory concentrations (IC50s) were calculated by non-linear regression in SigmaPlot (SPSS, Inc.).

human RNAP I/II/III = assay: Radiochemical assay with human RNAP I, II and III (HeLaScribe nuclear extract); type: biochemical
Protocol: Radiochemical assays with human RNAP I, II, and III were performed essentially as described [Sawadogo and Roeder, Cell 43:165-75, 1985]. Reaction mixtures contained (20 μl): 0-100 μM test compound, 8 U HeLaScribe Nuclear Extract (Promega, Inc.), 1 μg human placental DNA (Sigma-Aldrich), 400 μM ATP, 400 μM [α^32P]UTP (0.11 Bq/fmol), 400 μM CTP, 400 μM GTP, 50 mM Tris-HCl, pH 8.0, 7 mM HEPES-NaOH, 70 mM (NH4)2SO4, 50 mM KCl, 12 mM MgCl2, 5 mM DTT, 0.1 mM EDTA, 0.08 mM phenylmethylsulfonyl fluoride, and 16% glycerol. Reaction components other than DNA and NTPs were pre-incubated 10 min at 30° C., DNA was added and reaction mixtures were incubated 15 min at 30° C., NTPs were added and reaction mixtures were incubated 60 min at 30° C. Reaction mixtures were spotted on DE81 filter discs (Whatman, Inc.; pre-wetted with water) and incubated 1 min at room temperature. Filters were washed with 3×3 ml Na2HPO4, 2×3 ml water, and 3 ml ethanol, using a filter manifold (Hoefer, Inc.). Filters were placed in scintillation vials containing 10 ml Scintiverse BD Cocktail (Thermo Fisher, Inc.), and radioactivity was quantified by scintillation counting (LS6500; Beckman-Coulter, Inc.).
as §1

[1] = tested on: Escherichia coli D21f2toIC; assay: Antibacterial activity, broth microdilution, Escherichia coli D21f2tolC; type: cell-based; conditions: minimal concentration resulting in ≧50% inhibition of bacterial growth
Source text: (§2) Antibacterial activity was quantified using broth microdilution [Clinical and Laboratory Standards Institute (CLSUNCCLS), Methods for Dilution Antimicrobial Susceptibility Tests for Bacteria That Grow Aerobically; Approved Standard, Eighth Edition. CLIS Document M07-A8 (CLIS, Wayne Pa.), 2009]. Assays with Enterobacter cloacae ATCC 13047, Pseudomonas aeruginosa ATCC10145, and Escherichia coli D21f2to1C, employed a starting cell density of 2-5×10^5 cfu/ml, Mueller Hinton II cation adjusted broth (BD Biosciences, Inc.), and an air atmosphere. Assays with Haemophilus influenzae ATCC49247 and Neisseria gonorrhoeae ATCC 19424 employed a starting cell density of 2-5×10^5 cfu/ml, Haemophilus Test Medium broth (Barry et al., 1993) and a 5% CO2/95% air atmosphere. MIC50 was defined as the minimal concentration resulting in ≧50% inhibition of bacterial growth.

[2] = tested on: Enterobacter cloacae ATCC 13047; assay: Antibacterial activity, broth microdilution, Enterobacter cloacae; type: cell-based
Source text: as §2

Vero E6 ATCC CRL1586 = assay: Cytotoxicity to mammalian cells in culture (CellTiter96); type: cell-based
Source text: MICs for mammalian cells (Vero E6) in culture were quantified using CellTiter96 assay (Promega. Inc.; procedures as specified by the manufacturer). Screening data for SalA and SalB (compounds 1 and 2) and representative compounds of this invention (compounds 3-9) are presented in Tables 1-2: […]

Haemophilus influenzae = assay: Antibacterial activity, broth microdilution, Haemophilus influenzae; type: cell-based; conditions: in words, Gram-negative bacterial pathogen
Source text: as §2

Neisseria gonorrhoeae = assay: Antibacterial activity, broth microdilution, Neisseria gonorrhoeae; type: cell-based; conditions: in words, Gram-negative bacterial pathogen
Source text: as §2

Pseudomonas aeruginosa = assay: Antibacterial activity, broth microdilution, Pseudomonas aeruginosa; type: cell-based; conditions: in words, Gram-negative bacterial pathogen
Source text: as §2

RNAP = assay: Mechanism of inhibition of RNAP by Sal; type: biochemical; conditions: in words
[3] = tested on: mutants resistant to other RNAP inhibitors; conditions: disclosed herein
[4] = tested on: Gram-positive and Gram-negative bacterial RNAP; conditions: in words, reported previously (Miao et al. 1997); cited from earlier work
[5] = tested on: Gram-positive bacterial pathogens; conditions: in words, reported previously (Trischman 1994; Moore 1999); cited from earlier work
[6] = tested on: mutants resistant to other RNAP inhibitors; conditions: Ebright et al., WO/2012/129173; cited from earlier work

Sequence of Escherichia coli RNAP (P0A800 whole entry, the tested form may be a part): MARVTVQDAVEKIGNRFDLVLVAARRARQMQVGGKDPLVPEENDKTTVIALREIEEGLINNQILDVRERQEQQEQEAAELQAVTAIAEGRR
Sequence of Escherichia coli RNAP (P00579 whole entry, further chain, the tested form may be a part): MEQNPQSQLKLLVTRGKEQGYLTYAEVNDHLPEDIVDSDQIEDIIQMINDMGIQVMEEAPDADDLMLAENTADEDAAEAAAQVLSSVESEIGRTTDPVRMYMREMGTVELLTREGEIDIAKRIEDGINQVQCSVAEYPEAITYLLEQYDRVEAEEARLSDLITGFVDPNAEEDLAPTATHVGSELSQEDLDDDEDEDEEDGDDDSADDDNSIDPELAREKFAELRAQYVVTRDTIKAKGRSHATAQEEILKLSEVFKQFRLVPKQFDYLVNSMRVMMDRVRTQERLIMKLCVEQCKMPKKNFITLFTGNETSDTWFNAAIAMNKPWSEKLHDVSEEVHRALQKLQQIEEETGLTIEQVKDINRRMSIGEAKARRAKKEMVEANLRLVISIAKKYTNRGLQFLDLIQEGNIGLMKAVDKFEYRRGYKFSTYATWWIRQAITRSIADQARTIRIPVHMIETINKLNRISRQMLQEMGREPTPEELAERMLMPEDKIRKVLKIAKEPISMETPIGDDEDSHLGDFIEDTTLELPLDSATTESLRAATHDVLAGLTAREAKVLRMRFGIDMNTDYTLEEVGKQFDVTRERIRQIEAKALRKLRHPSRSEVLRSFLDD
Sequence of Escherichia coli RNAP (P0A8V2 whole entry, the tested form may be a part): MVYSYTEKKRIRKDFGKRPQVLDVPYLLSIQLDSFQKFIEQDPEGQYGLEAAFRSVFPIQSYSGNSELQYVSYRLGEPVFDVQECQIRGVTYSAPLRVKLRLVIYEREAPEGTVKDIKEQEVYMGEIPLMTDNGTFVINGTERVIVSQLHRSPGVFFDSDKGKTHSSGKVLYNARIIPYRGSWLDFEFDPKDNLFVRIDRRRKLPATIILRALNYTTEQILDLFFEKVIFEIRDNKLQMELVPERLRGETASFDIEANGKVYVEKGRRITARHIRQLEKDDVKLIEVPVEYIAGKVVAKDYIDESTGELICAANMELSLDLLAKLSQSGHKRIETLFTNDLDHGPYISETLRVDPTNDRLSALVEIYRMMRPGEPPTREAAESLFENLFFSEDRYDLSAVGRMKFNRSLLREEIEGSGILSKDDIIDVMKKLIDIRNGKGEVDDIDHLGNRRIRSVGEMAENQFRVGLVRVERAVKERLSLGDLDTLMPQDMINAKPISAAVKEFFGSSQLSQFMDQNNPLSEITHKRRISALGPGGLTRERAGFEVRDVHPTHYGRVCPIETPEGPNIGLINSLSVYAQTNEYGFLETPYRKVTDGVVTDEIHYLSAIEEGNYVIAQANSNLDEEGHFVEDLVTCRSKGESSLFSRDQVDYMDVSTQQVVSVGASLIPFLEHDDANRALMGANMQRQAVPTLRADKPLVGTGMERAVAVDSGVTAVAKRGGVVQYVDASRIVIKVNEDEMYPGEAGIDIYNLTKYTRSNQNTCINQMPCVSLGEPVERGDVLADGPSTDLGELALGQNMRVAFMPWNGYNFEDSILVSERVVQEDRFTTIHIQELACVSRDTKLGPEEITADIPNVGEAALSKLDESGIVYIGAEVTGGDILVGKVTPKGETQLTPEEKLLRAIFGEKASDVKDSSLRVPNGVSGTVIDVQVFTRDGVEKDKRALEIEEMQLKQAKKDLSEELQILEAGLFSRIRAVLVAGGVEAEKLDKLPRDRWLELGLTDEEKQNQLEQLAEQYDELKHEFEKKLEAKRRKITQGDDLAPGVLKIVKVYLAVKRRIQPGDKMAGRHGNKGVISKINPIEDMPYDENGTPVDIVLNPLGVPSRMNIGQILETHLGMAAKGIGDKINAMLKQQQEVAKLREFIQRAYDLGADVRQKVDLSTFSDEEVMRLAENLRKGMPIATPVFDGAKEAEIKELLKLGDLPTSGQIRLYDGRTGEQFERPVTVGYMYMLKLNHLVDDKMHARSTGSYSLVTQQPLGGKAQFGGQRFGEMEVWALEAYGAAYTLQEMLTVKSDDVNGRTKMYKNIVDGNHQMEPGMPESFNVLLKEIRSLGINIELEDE
Sequence of Escherichia coli RNAP (P0A8T7 whole entry, the tested form may be a part): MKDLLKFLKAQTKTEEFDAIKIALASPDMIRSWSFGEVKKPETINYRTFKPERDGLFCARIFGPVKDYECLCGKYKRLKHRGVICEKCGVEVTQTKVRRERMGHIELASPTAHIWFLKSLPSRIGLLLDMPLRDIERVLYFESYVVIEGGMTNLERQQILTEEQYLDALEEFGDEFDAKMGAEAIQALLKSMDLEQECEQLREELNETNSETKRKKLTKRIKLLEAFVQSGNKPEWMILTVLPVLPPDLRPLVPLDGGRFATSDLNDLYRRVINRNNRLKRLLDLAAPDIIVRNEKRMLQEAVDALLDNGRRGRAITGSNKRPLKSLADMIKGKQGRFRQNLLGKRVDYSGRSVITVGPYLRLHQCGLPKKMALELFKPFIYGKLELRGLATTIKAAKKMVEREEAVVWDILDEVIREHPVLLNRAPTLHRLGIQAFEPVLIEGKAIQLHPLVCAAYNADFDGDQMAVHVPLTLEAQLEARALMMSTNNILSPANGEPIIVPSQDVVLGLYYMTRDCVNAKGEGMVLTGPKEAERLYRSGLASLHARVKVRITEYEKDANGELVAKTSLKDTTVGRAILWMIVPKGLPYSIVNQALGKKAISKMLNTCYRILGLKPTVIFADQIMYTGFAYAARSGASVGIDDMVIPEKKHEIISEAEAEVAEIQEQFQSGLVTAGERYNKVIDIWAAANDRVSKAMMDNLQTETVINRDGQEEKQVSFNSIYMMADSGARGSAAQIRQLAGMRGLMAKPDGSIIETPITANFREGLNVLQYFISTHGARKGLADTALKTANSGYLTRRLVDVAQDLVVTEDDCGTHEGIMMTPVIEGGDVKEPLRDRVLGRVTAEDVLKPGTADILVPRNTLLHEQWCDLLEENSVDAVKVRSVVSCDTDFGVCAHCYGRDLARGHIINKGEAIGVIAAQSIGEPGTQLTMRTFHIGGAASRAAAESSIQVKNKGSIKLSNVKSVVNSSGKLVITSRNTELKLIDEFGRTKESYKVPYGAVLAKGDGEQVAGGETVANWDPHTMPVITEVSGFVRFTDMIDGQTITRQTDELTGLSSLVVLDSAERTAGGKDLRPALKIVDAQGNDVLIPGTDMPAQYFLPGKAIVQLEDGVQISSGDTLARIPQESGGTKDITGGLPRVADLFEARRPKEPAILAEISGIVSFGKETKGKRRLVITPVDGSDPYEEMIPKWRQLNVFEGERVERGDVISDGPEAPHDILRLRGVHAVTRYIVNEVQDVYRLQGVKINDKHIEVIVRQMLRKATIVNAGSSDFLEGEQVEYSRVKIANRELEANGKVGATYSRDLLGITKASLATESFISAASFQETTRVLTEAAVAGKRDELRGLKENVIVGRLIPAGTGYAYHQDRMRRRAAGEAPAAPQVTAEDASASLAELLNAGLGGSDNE
Sequence of Escherichia coli RNAP (P0A7Z4 whole entry, further chain, the tested form may be a part): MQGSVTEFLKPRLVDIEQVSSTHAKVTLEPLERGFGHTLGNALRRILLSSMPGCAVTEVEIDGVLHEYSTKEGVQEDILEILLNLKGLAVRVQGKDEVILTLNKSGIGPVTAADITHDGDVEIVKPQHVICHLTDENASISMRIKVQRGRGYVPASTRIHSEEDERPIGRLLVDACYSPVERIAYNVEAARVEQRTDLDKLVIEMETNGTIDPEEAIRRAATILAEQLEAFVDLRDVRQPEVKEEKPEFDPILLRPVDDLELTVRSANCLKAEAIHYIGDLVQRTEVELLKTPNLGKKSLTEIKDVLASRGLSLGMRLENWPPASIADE

Salinamide A [SalA (1)]
IC50 (Escherichia coli RNAP): 1000 nM | IC50 (human RNAP I/II/III): > 100000 nM | inhibition of human RNAP I, II, and III (human RNAP I/II/III; in words): do not detectably inhibit | MIC50 Escherichia coli D21f2toIC [1]: 0.024 µg/mL | antibacterial activity against Enterobacter cloacae ([2]; in words, Gram-negative bacterial pathogen): exhibit antibacterial activity | MIC50 Enterobacter cloacae ATCC 13047 ([2]; minimal concentration resulting in ≧50% inhibition of bacterial growth): 1.56 µg/mL | inhibition of growth of mammalian cells in culture (Vero E6 ATCC CRL1586; in words): do not detectably inhibit growth | MIC50 Vero E6 ATCC CRL1586 (Vero E6 ATCC CRL1586; mammalian cells in culture): >100 µg/mL | antibacterial activity against Haemophilus influenzae (Haemophilus influenzae): exhibit antibacterial activity | antibacterial activity against Neisseria gonorrhoeae (Neisseria gonorrhoeae): exhibit antibacterial activity | antibacterial activity against Pseudomonas aeruginosa (Pseudomonas aeruginosa): exhibit antibacterial activity | inhibition of formation of the RNAP-promoter open complex in transcription initiation (RNAP): does not inhibit | inhibition of nucleotide addition in both transcription initiation and transcription elongation (RNAP): inhibits | inhibition of wild-type RNAP versus RNAP-derivative having a deletion of the trigger loop (RNAP): equal extents | mode of transcription inhibition with respect to NTP substrate (RNAP): noncompetitive | cross-resistance to Sal of streptolydigin-resistant, myxopyronin-resistant, and lipiarmycin-resistant mutants [3]: do not exhibit cross-resistance | inhibition of Gram-positive and Gram-negative bacterial RNAP in vitro [4]: inhibits | antibacterial activity against Gram-positive bacterial pathogens [5]: exhibit antibacterial activity | cross-resistance to Sal of CBR703-resistant mutants [6]: not cross-resistant | cross-resistance to Sal of rifamycin-resistant mutants [6]: not cross-resistant
